Assay results: ChEMBL document CHEMBL4130347, “Molecular topology: A new strategy for antimicrobial resistance control” (2017)
≈ marks a conversion by molar mass, not a printed value. Calls of active or inactive are those of the source. The rule behind the calls is not given here.

Columns and labels:
Enterococcus faecalis = assay: Antibacterial activity against Enterococcus faecalis ATCC 51299 by microdilution method; assay type: functional
Escherichia coli = assay: Antibacterial activity against Escherichia coli ATCC 25922 by microdilution method; assay type: functional, organism-based
Staphylococcus aureus [1] = assay: Antibacterial activity against methicillin-resistant Staphylococcus aureus ATCC 33591 assessed as decrease in levels of viable bacteria at 2 times MIC after 4 hrs by time-kill assay; assay type: functional
Staphylococcus aureus [2] = assay: Antibacterial activity against methicillin-resistant Staphylococcus aureus ATCC 33591 by microdilution method; assay type: functional
Staphylococcus aureus [3] = assay: Antibacterial activity against methicillin-resistant Staphylococcus aureus ATCC 33591 assessed as decrease in levels of viable bacteria at 2 times MIC after 8 hrs by time-kill assay; assay type: functional
Staphylococcus aureus [4] = assay: Antibacterial activity against methicillin-resistant Staphylococcus aureus ATCC 33591 assessed as growth inhibition after 48 hrs; assay type: functional, organism-based
Staphylococcus aureus [5] = assay: Antibacterial activity against methicillin-resistant Staphylococcus aureus ATCC 33591 assessed as decrease in levels of viable bacteria at 2 times MIC after 24 hrs by time-kill assay; assay type: functional
[6] = tested on: Staphylococcus epidermidis; assay: Antibacterial activity against Staphylococcus epidermidis ATCC 12228 by microdilution method; assay type: functional, organism-based
Staphylococcus aureus [7] = assay: Antibacterial activity against methicillin-susceptible Staphylococcus aureus ATCC 25923 by microdilution method; assay type: functional
Bacteria [8] = assay: Inhibition of bacterial RecA expressed in Escherichia coli ATCC 25922 harboring GyrA Ser83Leu mutant assessed as decrease in SOS induction at 50 uM after 8 hrs in presence of 0.25 times MIC of ciprofloxacin by fluorescence assay relative to control
Bacteria [9] = assay: Inhibition of bacterial RecA expressed in Escherichia coli ATCC 25922 assessed as decrease in SOS induction at 50 uM after 8 hrs in presence of 0.25 times MIC of ciprofloxacin by fluorescence assay relative to control
Bacteria [10] = assay: (§1) Inhibition of bacterial RecA expressed in Escherichia coli ATCC 25922 harboring GyrA Ser83Leu mutant/ParC Ser80Arg mutant/GyrA Asp87Asn mutant assessed as decrease in SOS induction at 50 uM after 8 hrs in presence of 0.25 times MIC of ciprofloxacin by fluorescence assay relative to control
Bacteria [11] = assay: Inhibition of bacterial RecA expressed in Escherichia coli ATCC 25922 harboring GyrA Ser83Leu mutant/ParC Ser80Arg mutant assessed as decrease in SOS induction at 50 uM after 8 hrs in presence of 0.25 times MIC of ciprofloxacin by fluorescence assay relative to control
Bacteria [12] = assay: as §1, with “Asp87Asn mutant/marR deletion” for “Asp87Asn”

Structure (SMILES) | Activity (Enterococcus faecalis) | Activity (Escherichia coli) | Activity (Staphylococcus aureus [1]) [deltalog10CFU/ml] | MIC (Staphylococcus aureus [2]) [µg/mL] | Activity (Staphylococcus aureus [3]) [deltalog10CFU/ml] | growth inhibition (GI) (Staphylococcus aureus [4]) | Activity (Staphylococcus aureus [5]) [deltalog10CFU/ml] | Activity [6] | MIC (Staphylococcus aureus [7]) [µg/mL] | inhibition (Bacteria [8]) [%] | inhibition (Bacteria [9]) [%] | inhibition (Bacteria [10]) [%] | inhibition (Bacteria [11]) [%] | inhibition (Bacteria [12]) [%] | MIC (Enterococcus faecalis) [µg/mL]
CCN(CC)CCN1C(=O)C(O)=C(C(=O)c2ccc(OC)cc2)C1c1ccc(C)o1 (configuration not stated) | inactive | inactive | 1.5 | 16 to 128 (≈ 38.8 to 310 µM) | 2.5 | Dose-dependent effect | 4 | Active | 16 to 128 (≈ 38.8 to 310 µM) | – | – | – | – | – | –
COc1cc(C(=O)OCCCn2c(=O)c3c(nc(N4CCN(CCO)CC4)n3C)n(C)c2=O)cc(O)c1OC | Active | inactive | – | 16 to 128 (≈ 29.3 to 234 µM) | – | – | – | Active | 16 to 128 (≈ 29.3 to 234 µM) | – | – | – | – | – | –
O=C(O)CSc1cc(NS(=O)(=O)c2ccc(Cl)cc2)c2ccccc2c1O | – | Active | – | 16 to 128 (≈ 37.7 to 302 µM) | – | – | – | – | 16 to 128 (≈ 37.7 to 302 µM) | 31 to 47 | 31 to 47 | 31 to 47 | 31 to 47 | 31 to 47 | –
COCCOC(=O)C1=C(C)OC(N)=C(C#N)C12C(=O)N(CC(=O)OC)c1ccccc12 (configuration not stated) | – | inactive | – | 16 to 128 (≈ 37.4 to 299 µM) | – | – | – | Active | 16 to 128 (≈ 37.4 to 299 µM) | – | – | – | – | – | 32 to 128 (≈ 74.9 to 299 µM)
O=C(CCN1CCOCC1)NNC(=O)c1ccc([N+](=O)[O-])cc1[N+](=O)[O-] | – | inactive | – | 16 to 128 (≈ 43.6 to 348 µM) | – | – | – | Active | 16 to 128 (≈ 43.6 to 348 µM) | – | – | – | – | – | 32 to 128 (≈ 87.1 to 348 µM)
COc1cc(C(=O)OCCn2c(N3CCN(CCO)CC3)nc3c2c(=O)n(C)c(=O)n3C)cc(OC)c1OC | – | inactive | – | 16 to 128 (≈ 29.3 to 234 µM) | – | – | – | Active | 16 to 128 (≈ 29.3 to 234 µM) | – | – | – | – | – | 32 to 128 (≈ 58.5 to 234 µM)
NNc1ccc(S(=O)(=O)N2CCOCC2)cc1[N+](=O)[O-] | Active | inactive | – | 16 to 128 (≈ 52.9 to 423 µM) | – | – | – | Active | 16 to 128 (≈ 52.9 to 423 µM) | – | – | – | – | – | –
